Results published in patent publication US20230295087A1, “AGONISTS OF ROR GAMMAt” (BRISTOL-MYERS SQUIBB COMPANY, priority 2019, published 2023).

Target: T1, human RORgT (Homo sapiens, UniProt P51449)
T1 construct: expressed in transfected cells
T1 sequence (P51449 267-516): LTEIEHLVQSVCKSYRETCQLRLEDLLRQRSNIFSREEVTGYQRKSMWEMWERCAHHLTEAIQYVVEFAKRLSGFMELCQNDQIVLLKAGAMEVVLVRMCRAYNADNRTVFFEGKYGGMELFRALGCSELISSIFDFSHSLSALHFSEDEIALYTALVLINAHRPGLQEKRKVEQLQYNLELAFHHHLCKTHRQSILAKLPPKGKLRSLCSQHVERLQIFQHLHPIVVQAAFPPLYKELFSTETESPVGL
Test: RORgT Gal4 Luciferase Reporter Gene Assay
Assay type: cell-based
Conditions: engineered Jurkat cells overexpressing RORgT (LBD or full length) fused with Gal4 Luc reporter; 18 hours at 37° C.; luminescence
Procedure, shortened: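 Jurkat cells expressing Gal4 Luc with either RORgT LBD (aa267-516) or full-length human RORgT, 10,000 cells/well, treated with compound (40 µM to 0.67 nM final, 3-fold dilutions) for 18 h at 37° C. Steady-Glo luminescence read; inhibition of constitutive activity as % signal-window reduction relative to a control compound.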

Row | EC50 [µM] | Molecule
1 | 0.0049 | O=C(C1CCS(=O)(=O)C1)N1CC[C@@]2(S(=O)(=O)c3ccc(F)cc3)c3ccc(OCc4cc(F)c(F)cc4Cl)cc3CC[C@@H]12 (stereo partly drawn) [Example 213, 3-[(3aR,9bR)-7-[(2-chloro-4,5-difluorophenyl)methoxy]-9b-(4-fluorobenzenesulfonyl)-1H,2H,3H,3aH,4H,5H,9bH-benzo[e]indole-3-carbonyl]-1λ^6-thiolane-1,1-dione]
2 | 0.0053 | CC(=O)N1CCC(C(=O)N2CC[C@@]3(S(=O)(=O)c4ccc(F)cc4)c4ccc(OCc5c(F)cc(F)cc5Cl)cc4CC[C@@H]23)CC1 [Example 214, 1-{4-[(3aR,9bR)-7-[(2-chloro-4,6-difluorophenyl)methoxy]-9b-(4-fluorobenzenesulfonyl)-1H,2H,3H,3aH,4H,5H,9bH-benzo[e]indole-3-carbonyl]piperidin-1-yl}ethan-1-one]
3 | 0.157 | CN1CCC(C(=O)N2CC[C@@]3(S(=O)(=O)c4ccc(F)cc4)c4ccc(OCc5c(F)cc(F)cc5Cl)cc4CC[C@@H]23)CC1 [Example 215, 4-[(3aR,9bR)-7-[(2-chloro-4,6-difluorophenyl)methoxy]-9b-(4-fluorobenzenesulfonyl)-1H,2H,3H,3aH,4H,5H,9bH-benzo[e]indole-3-carbonyl]-1-methylpiperidine]
4 | 0.266 | CS(=O)(=O)CC(=O)N1CC[C@@]2(S(=O)(=O)c3ccc(F)cc3)c3ccc(OCc4cc(F)c(F)cc4Cl)cc3CC[C@@H]12 [Example 216, 1-[(3aR,9bR)-7-[(2-chloro-4,5-difluorophenyl)methoxy]-9b-(4-fluorobenzenesulfonyl)-1H,2H,3H,3aH,4H,5H,9bH-benzo[e]indol-3-yl]-2-methanesulfonylethan-1-one]
5 | 0.168 | CS(=O)(=O)CC(=O)N1CC[C@@]2(S(=O)(=O)c3ccc(F)cc3)c3ccc(OCc4c(F)cc(F)cc4Cl)cc3CC[C@@H]12 [Example 217, 1-[(3aR,9bR)-7-[(2-chloro-4,6-difluorophenyl)methoxy]-9b-(4-fluorobenzenesulfonyl)-1H,2H,3H,3aH,4H,5H,9bH-benzo[e]indol-3-yl]-2-methanesulfonylethan-1-one]
6 | 0.012 | O=C(C1CCS(=O)(=O)C1)N1CC[C@@]2(S(=O)(=O)c3ccc(F)cc3)c3ccc(OCc4c(F)cc(F)cc4Cl)cc3CC[C@@H]12 (stereo partly drawn) [Example 218, 3-[(3aR,9bR)-7-[(2-chloro-4,6-difluorophenyl)methoxy]-9b-(4-fluorobenzenesulfonyl)-1H,2H,3H,3aH,4H,5H,9bH-benzo[e]indole-3-carbonyl]-1λ^6-thiolane-1,1-dione]
7 | 0.053 | CC(=O)N1CCC(C(=O)N2CC[C@@]3(S(=O)(=O)c4ccc(F)cc4)c4ccc(OCc5cc(F)c(F)cc5Cl)cc4CC[C@@H]23)CC1 [Example 219, 1-{4-[(3aR,9bR)-7-[(2-chloro-4,5-difluorophenyl)methoxy]-9b-(4-fluorobenzenesulfonyl)-1H,2H,3H,3aH,4H,5H,9bH-benzo[e]indole-3-carbonyl]piperidin-1-yl}ethan-1-one]
8 | 0.013 | NC(=O)N1CCC(C(=O)N2CC[C@@]3(S(=O)(=O)c4ccc(F)cc4)c4ccc(OCc5c(F)cc(F)cc5Cl)cc4CC[C@@H]23)CC1 [Example 220, 4-[(3aR,9bR)-7-[(2-chloro-4,6-difluorophenyl)methoxy]-9b-(4-fluorobenzenesulfonyl)-1H,2H,3H,3aH,4H,5H,9bH-benzo[e]indole-3-carbonyl]piperidine-1-carboxamide]
9 | 0.034 | O=C(CN1CCS(=O)(=O)CC1)N1CC[C@@]2(S(=O)(=O)c3ccc(F)cc3)c3ccc(OCc4cc(F)c(F)cc4Cl)cc3CC[C@@H]12 [Example 221, 4-{2-[(3aR,9bR)-7-[(2-chloro-4,5-difluorophenyl)methoxy]-9b-(4-fluorobenzenesulfonyl)-1H,2H,3H,3aH,4H,5H,9bH-benzo[e]indol-3-yl]-2-oxoethyl}-1λ^6-thiomorpholine-1,1-dione]
10 | 0.0039 | [2H]C([2H])(Oc1ccc2c(c1)CC[C@H]1N(C(=O)[C@H]3CC[C@H](C(=O)O)CC3)CC[C@@]21S(=O)(=O)c1ccc(F)cc1)c1c(F)cccc1Cl [Example 222]
11 | 0.012 | (1R,4r)-4-((3aR,9bR)-7-((2-chloro-6-fluorobenzyl)oxy)-9b-((4-fluorophenyl)sulfonyl)-2,3,3a,4,5,9b-hexahydro-1H-benzo[e]indole-3-carbonyl)-1-methylcyclohexanecarboxylic acid [Example 8]
